For experiment [1], the system named is non-small cell lung carcinoma (A549) cells. The experiment can be described thus: MTT proliferation assay, NSCLC. The conditions noted are these: Homo sapiens, Tumor Cell NSCLC (A549), 120 hours, read-out: Anti-proliferative IC-50. It counts as cell-based, Human.
Experiment [2] concerns pancreatic carcinoma (MIA PaCa-2) cells. As to the kind of experiment: MTT proliferation assay, pancreatic. The class given is cell-based, Human. The conditions noted are these: Homo sapiens, Tumor Cell Pancreatic (MIA PaCa-2), 120 hours, read-out: Anti-proliferative IC-50. On the technique in general: Tetrazolium assays rely on reduction of a dye to a coloured formazan, in cell work by metabolically active cells.

Experiment [3] has as its system Cofilin:LIMK2. The experiment can be described thus: Protein-fragment complementation assay Cofilin:LIMK2. It counts as cell-based, human. The conditions noted are these: hit in Cofilin/LIMK2 assay; drugs screened at 10 micromolar. The source says:
(§1) To construct dynamic assays for protein-protein complexes, we used a protein-fragment complementation assay strategy (PCAs) in intact human cells. (A variety of other suitable assays, and reporter options, are described in detail below.) The principle of PCA is that complementary polypeptide fragments (F[1] and F[2]) of a reporter protein or enzyme will fold into an active form only if fused to two proteins which interact and bring the complementary fragments of the reporter protein into proximity. Reconstitution of the fragments of the reporter protein generates a fluorescent signal that can be quantified in intact cells, and the amount of the signal is proportional to the amount of the protein-protein complex used in constructing the assay. Given a suitable reporter type, the subcellular location of the complex can also be measured.
(§2) Reporter fragments for PCA were generated by oligonucleotide synthesis (Blue Heron Biotechnology, Bothell, Wash.), starting with the sequence of yellow fluorescent protein (YFP). First, oligonucleotides coding for polypeptide fragments YFP[1]and YFP[2] […] Next, PCR mutagenesis was used to generate the mutant fragments IFP[1] and IFP[2]. The IFP[1] fragment corresponds to YFP[1]-(F46L, F64L, M153T) and the IFP[2] fragment corresponds to YFP[2]-(V163A, S175G). […]

Experiment [4] has as its system HSP90:CDC37. As to the kind of experiment: Protein-fragment complementation assay Hsp90:CDC37. It counts as cell-based, human.
Text: as §1, §2

Experiment [5] relates to PIN1:JUN complexes. As to the kind of experiment: Protein-fragment complementation assay PIN1:JUN. It counts as cell-based, human.
Text: as §1, §2

This note sets out measurements from patent US20060094059A1, “Methods for identifying new drug leads and new therapeutic uses for known drugs” (Odyssey Thera, Inc., priority 2004, published 2006).

pIC50: −log10 of the molar value.

On to `O=C(Nc1ccc([N+](=O)[O-])cc1Cl)c1cc(Cl)ccc1O` [Niclosamide], for which the pIC50 in experiment [1] was 6.18; in experiment [2], 6.23. In addition, the Assay activity result in experiment [3] is listed as “Cofilin/LIMK2,”; in experiment [4] (hit in HSP90/CDC37 assay, drugs screened at 10 micromolar), “HSP90/CDC37,”; in experiment [5] (hit in PIN1/JUN assay, drugs screened at 10 micromolar) it was “PIN1/JUN,”. In experiment [4] (FIG. 3D), the “level of HSP90:CDC37 complexes (intensity of the fluorescence)” value is given as “decrease in the level”. For the same molecule, the “level of PIN1:JUN complexes (intensity of the fluorescence)” value in experiment [5] (FIG. 3A) is reported as “decrease in the level”.
